Test results published in patent US12084436B2, “Heterocyclic compound” (Takeda Pharmaceutical Company Limited, priority 2019, dated 2024).

Molecular target: T1, HDAC6 enzyme (Homo sapiens, UniProt Q9UBN7)
T1 construct: prepared by transducing full length HDAC6 gene into Sf-9 insect cells; GST; purchased SignalChem; host or cells: Sf-9 insect cells
T1 sequence (Q9UBN7 1-1215): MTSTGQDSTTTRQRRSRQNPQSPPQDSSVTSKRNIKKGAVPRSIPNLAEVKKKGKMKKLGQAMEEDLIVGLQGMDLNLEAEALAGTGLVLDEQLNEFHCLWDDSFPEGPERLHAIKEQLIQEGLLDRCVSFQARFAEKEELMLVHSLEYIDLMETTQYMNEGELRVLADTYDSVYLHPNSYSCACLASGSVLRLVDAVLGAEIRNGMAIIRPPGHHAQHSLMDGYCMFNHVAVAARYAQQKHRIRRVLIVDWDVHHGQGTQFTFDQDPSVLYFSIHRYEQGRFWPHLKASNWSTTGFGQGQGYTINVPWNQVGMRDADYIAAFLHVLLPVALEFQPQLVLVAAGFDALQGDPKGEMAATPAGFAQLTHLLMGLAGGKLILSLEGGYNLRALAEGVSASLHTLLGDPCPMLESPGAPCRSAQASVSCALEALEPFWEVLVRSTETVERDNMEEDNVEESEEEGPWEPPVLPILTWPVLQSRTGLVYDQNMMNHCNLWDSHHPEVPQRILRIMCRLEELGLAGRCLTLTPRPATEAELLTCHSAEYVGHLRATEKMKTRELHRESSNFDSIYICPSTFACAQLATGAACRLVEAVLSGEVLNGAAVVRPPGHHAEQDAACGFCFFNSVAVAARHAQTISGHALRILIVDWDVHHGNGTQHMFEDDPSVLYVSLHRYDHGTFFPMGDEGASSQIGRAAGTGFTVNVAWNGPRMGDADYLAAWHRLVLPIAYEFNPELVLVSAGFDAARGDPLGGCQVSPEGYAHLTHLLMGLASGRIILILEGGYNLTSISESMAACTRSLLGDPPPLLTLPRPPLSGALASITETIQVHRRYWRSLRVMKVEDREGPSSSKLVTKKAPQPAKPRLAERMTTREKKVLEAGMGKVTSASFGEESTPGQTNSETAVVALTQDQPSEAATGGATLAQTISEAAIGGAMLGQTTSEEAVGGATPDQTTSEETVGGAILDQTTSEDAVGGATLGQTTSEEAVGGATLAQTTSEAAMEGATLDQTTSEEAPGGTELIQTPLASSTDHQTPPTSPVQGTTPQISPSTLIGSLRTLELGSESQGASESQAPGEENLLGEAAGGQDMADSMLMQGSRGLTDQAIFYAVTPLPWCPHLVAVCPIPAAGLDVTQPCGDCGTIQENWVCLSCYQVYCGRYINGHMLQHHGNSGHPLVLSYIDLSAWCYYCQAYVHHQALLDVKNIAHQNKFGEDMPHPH
Assay: HDAC6 enzyme inhibitory assay (HDAC-Glo I/II Assay kit, luminescence)
Assay type: biochemical
Details: 10 μM test compound; wells without enzyme = 100% inhibition; 10 µM
In short: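 Full-length human HDAC6, GST-purified from Sf-9 cells, was preincubated with compound for 60 min at room temperature in Tris-HCl pH 7.5 buffer with glutathione and Tween-20. Substrate-developer was then added, and luminescence was read after 20 min at room temperature. Inhibition was expressed relative to no-enzyme wells, taken as 100% inhibition.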

Compound | HDAC6 inhibitory rate (%) (10 μM)
CN1C(=O)c2cc(-c3nnc(C(F)F)o3)ccc2CC1(C)c1ccc(F)cc1 (single isomer, unassigned; isomer 2) [Example 24b, 7-[5-(difluoromethyl)-1,3,4-oxadiazol-2-yl]-3-(4-fluorophenyl)-2,3-dimethyl-3,4-dihydroisoquinolin-1(2H)-one (optical isomer 2)] | 99%
CN1C(=O)c2cc(-c3nnc(C(F)F)o3)cnc2CC1(C)c1ccc(F)cc1 (single isomer, unassigned) [Example 1b, 3-[5-(difluoromethyl)-1,3,4-oxadiazol-2-yl]-7-(4-fluorophenyl)-6,7-dimethyl-7,8-dihydro-1,6-naphthyridin-5(6H)-one] | 100%

Same assay, conditions: 10 μM test compound; wells without enzyme = 100% inhibition; read-out: HDAC6 inhibitory rate (%) (10 μM)

Compound | inhibition at 10 µM
Cn1ccc(OC2CCOCC2)c(-c2cc(F)cc(-c3nnc(C(F)F)o3)c2)c1=O [Example 53a, 3-{3-[5-(difluoromethyl)-1,3,4-oxadiazol-2-yl]-5-fluorophenyl}-1-methyl-4-[(oxan-4-yl)oxy]pyridin-2(1H)-one] | 100%
Cn1ccc(OC2CCOCC2)c(-c2cc(-c3nnc(C(F)F)o3)ccn2)c1=O [Example 91a, 4-[5-(difluoromethyl)-1,3,4-oxadiazol-2-yl]-1′-methyl-4′-[(oxan-4-yl)oxy][2,3′-bipyridine]-2′(1′H)-one] | 100%
COCCN1C(=O)c2cc(-c3nnc(C(F)F)o3)ccc2OC1(C)c1ccc(F)cc1 (centres unmarked) [Example 52b, 6-[5-(difluoromethyl)-1,3,4-oxadiazol-2-yl]-2-(4-fluorophenyl)-3-(2-methoxyethyl)-2-methyl-2,3-dihydro-4H-1,3-benzoxazin-4-one] | 100%
FC(F)c1nnc(-c2cccc(-n3nccc3C3CC3)c2)o1 [Example 2a, 2-[3-(5-cyclopropyl-1H-pyrazol-1-yl)phenyl]-5-(difluoromethyl)-1,3,4 oxadiazole] | 104%
Fc1cc(-c2nnc(C(F)F)o2)cc(-c2nccn2Cc2cscn2)c1 [Example 60a, 2-(difluoromethyl)-5-(3-fluoro-5-{1-[(1,3-thiazol-4-yl)methyl]-1H-imidazol-2-yl}phenyl)-1,3,4-oxadiazole] | 98%
O=C1c2cc(-c3nnc(C(F)F)o3)ccc2CN1Nc1ccc(F)c(Cl)c1 [Example 37c, 2-(3-chloro-4-fluoroanilino)-6-[5-(difluoromethyl)-1,3,4-oxadiazol-2-yl]-2,3-dihydro-1H-isoindol-1-one] | 99%
N#Cc1cnc(-c2cc(-c3nnc(C(F)F)o3)ccn2)n1Cc1cccc(F)c1 [Example 82a, 2-{4-[5-(difluoromethyl)-1,3,4-oxadiazol-2-yl]pyridin-2-yl}-1-[(3-fluorophenyl)methyl]-1H-imidazole-5-carbonitrile] | 99%
CN1C(=O)c2cc(-c3nnc(C(F)F)o3)ccc2OC1(C)c1ccc(F)c(F)c1 (centres unmarked) [Example 32b, 6-[5-(difluoromethyl)-1,3,4-oxadiazol-2-yl]-2-(3,4-difluorophenyl)-2,3-dimethyl-2,3-dihydro-4H-1,3-benzoxazin-4-one] | 100%
CN(C(=O)OC(C)(C)C)N1Cc2ncc(-c3nnc(C(F)F)o3)cc2C1=O [Example 68c, tert-butyl {3-[5-(difluoromethyl)-1,3,4-oxadiazol-2-yl]-5-oxo-5,7-dihydro-6H-pyrrolo[3,4-b]pyridin-6-yl}methylcarbamate] | 99%
CN1C(=O)c2cc(-c3nnc(C(F)F)o3)ccc2O[C@]1(C)c1ccccc1 [Example 6b, (2R)-6-[5-(difluoromethyl)-1,3,4-oxadiazol-2-yl]-2,3-dimethyl-2-phenyl-2,3-dihydro-4H-1,3-benzoxazin-4-one] | 99%
CN1C(=O)c2cc(-c3nnc(C(F)F)o3)cnc2CC1(C)c1ccc(F)c(F)c1 (centres unmarked) [Example 38b, 3-[5-(difluoromethyl)-1,3,4-oxadiazol-2-yl]-7-(3,4-difluorophenyl)-6,7-dimethyl-7,8-dihydro-1,6-naphthyridin-5(6H)-one] | 101%
COC(=O)c1ccccc1CN(C)N1Cc2ccc(-c3nnc(C(F)F)o3)cc2C1=O [Example 44c, methyl 2-{[{6-[5-(difluoromethyl)-1,3,4-oxadiazol-2-yl]-1-oxo-1,3-dihydro-2H-isoindol-2-yl}(methyl)amino]methyl}benzoate] | 102%
O=C(CC(F)(F)F)N(Cc1ccc(F)cc1)N1Cc2ccc(-c3nnc(C(F)F)o3)cc2C1=O [Example 14c, N-{6-[5-(difluoromethyl)-1,3,4-oxadiazol-2-yl]-1-oxo-1,3-dihydro-2H-isoindol-2-yl}-3,3,3-trifluoro-N-[(4-fluorophenyl)methyl]propanamide] | 100%

Tested on: tauopathy mouse model
Assay: not given
Details: cited from earlier work

Compound | acetylation of tubulin | therapeutic effectiveness
CN1CCc2c(c3ccccc3n2Cc2ccc(C(=O)NO)cc2)C1 [Tubastatin A] | increases acetylation of tubulin | shows therapeutic effectiveness
